Reference: article PMC6503114, “Application of Antimicrobial Peptides of the Innate Immune System in Combination With Conventional Antibiotics—A Novel Way to Combat Antibiotic Resistance?” (Frontiers in Cellular and Infection Microbiology, 2019)
Marks after values point to notes of the source that are not given here. Bridges are numbered along the chain shown (N, C = ends). Where no end group is shown, it is not given here.

How the values were obtained:
S. aureus 1399/17 [1] = assay: Checkerboard titration (FICI); format: cell-based, Staphylococcus aureus
Protocol: (§1) The combined antimicrobial action of AMPs and other antimicrobial compounds was assessed using checkerboard titration approach under the conditions similar to that of the microdilution assay. According to checkerboard titration template, one component (A) of the combination was diluted along the rows of the plate, while the other (B) was diluted down the columns, thereby creating the variety of mixtures with different concentrations of tested compounds. 2.5 μl of corresponding solutions of the components A and B were added into each well of the plate. Into the first column and the last row the same amount of 10 mM sodium phosphate buffer, pH 7.4, containing 0.1% of BSA was introduced instead of the second component. Thus, all wells contained 5 μl of antimicrobial compounds solutions (solo or in combination). The same volume of bacterial suspension, prepared as described for microdilution assay, was added into each well. The results were recorded after the overnight incubation, visually indicating the presence or absence of the microbial growth in the corresponding wells. Based on the obtained data the isobolograms of combined action were plotted and/or Fractional Inhibitory Concentration Indices (FICI) were calculated. […] Depending on the minimal value of the FICI the combined effect of the combination was classified as antagonism (FICI > 2), independent action (1 < FICI ≤ 2), additivity (0.5 < FICI ≤ 1) or synergy (FICI ≤ 0.5), as is recommended in the literature and due to some drawbacks of the serial dilution method (Hsieh et al., [1993]; Orhan et al., [2005]; Fehri et al., [2007]). FICIs were assessed in 3–6 independent experiments and median values were used to define the nature of interaction.

P. aeruginosa MDR 522/17 [2] = assay: Checkerboard titration (FICI); format: cell-based, Pseudomonas aeruginosa
Protocol: as §1

E. coli ESBL 521/17 [3] = assay: microbe, parasite or virus in culture; format: cell-based; details: Escherichia coli, ESBL521/17; E. coli ESBL 521/17, drug-resistant clinical isolate; square brackets = twice the maximal tested concentration
Protocol: (§2) Prior to the “checkerboard” synergy test the minimal inhibitory concentrations (MIC) of individual substances were determined using broth microdilution assay. Testing was performed in 60-well polystyrene Terasaki microplates with V-shaped bottom generally according to the guidelines of the European Committee for Antimicrobial Susceptibility Testing with subtle modifications designed for AMP testing (Tossi et al., [1997]; Wiegand et al., [2008]). Cultivation of bacteria was carried out in 2.1% Müller-Hinton broth at 37°C with shaking. Two-fold serial dilutions of peptides, antibiotics and other antimicrobials were made with 10 mM sodium phosphate buffer, pH 7.4, containing 0.1% of BSA. The plates were preliminary incubated with 0.1% BSA for 1 h at 37°C to reduce a non-specific binding of peptides to the plates. After that BSA was removed, and serial dilutions were added into the plate wells in triplicates followed by the same volume of the suspension of bacterial cells in logarithmic phase of growth in concentration of 1 × 10^6 CFU/ml. After the 18 h overnight incubation at 37°C, the MIC value for each compound was determined as its lowest concentration completely inhibiting the visible growth of bacteria. The final results were calculated as median values based on 3–6 independent experiments.

[4] = system: K. pneumoniae ESBL 344/17; assay: microbe, parasite or virus in culture; format: cell-based; details: Klebsiella pneumoniae, ESBL344/17; K. pneumoniae ESBL 344/17, drug-resistant clinical isolate
Protocol: as §2

A. baumannii 7226/16 [5] = assay: microbe, parasite or virus in culture; format: cell-based; details: Acinetobacter baumannii; A. baumannii 7226/16, drug-resistant clinical isolate
Protocol: as §2

S. aureus 1399/17 [6] = assay: microbe, parasite or virus in culture; format: cell-based; details: Staphylococcus aureus, 1399/17
Protocol: as §2

P. aeruginosa MDR 522/17 [7] = assay: microbe, parasite or virus in culture; format: cell-based; details: Pseudomonas aeruginosa, MDR522/17; P. aeruginosa MDR 522/17, drug-resistant clinical isolate
Protocol: as §2

A. baumannii 7226/16 [8] = assay: Checkerboard titration (FICI); format: cell-based, Acinetobacter baumannii
Protocol: as §1

[9] = system: K. pneumoniae ESBL 344/17; assay: Checkerboard titration (FICI); format: cell-based, Klebsiella pneumoniae
Protocol: as §1

E. coli ESBL 521/17 [10] = assay: Checkerboard titration (FICI); format: cell-based, Escherichia coli
Protocol: as §1

MRSA ATCC 33591 = assay: microbe, parasite or virus in culture; format: cell-based, Staphylococcus aureus; details: median of 3–6 experiments, square brackets = twice the maximal tested concentration
bacteria = assay: Checkerboard titration, synergy cases with conventional antibiotics (all tested bacteria); format: cell-based; details: in vitro, human AMPs
Protocol: as §1, with “According” for “The combined antimicrobial action of AMPs and other antimicrobial compounds was assessed using checkerboard titration approach under the conditions similar to that of the microdilution assay. According”

[11] = antibiotic in combination with ChBac3.4
[12] = antibiotic in combination with PG-1

Row | Molecule | Minimal FICI (S. aureus 1399/17 [1]; [11]) | Minimal FICI (S. aureus 1399/17 [1]; [12]) | Minimal FICI (P. aeruginosa MDR 522/17 [2]; [11]) | Minimal FICI (P. aeruginosa MDR 522/17 [2]; [12]) | MIC (E. coli ESBL 521/17 [3]) | MIC [4] | MIC (A. baumannii 7226/16 [5]) | MIC (S. aureus 1399/17 [6]) | MIC (P. aeruginosa MDR 522/17 [7]) | Minimal FICI (A. baumannii 7226/16 [8]; [11]) | Minimal FICI (A. baumannii 7226/16 [8]; [12]) | Minimal FICI [9, 11] | Minimal FICI [9, 12] | Minimal FICI (E. coli ESBL 521/17 [10]; [11]) | Minimal FICI (E. coli ESBL 521/17 [10]; [12]) | MIC (MRSA ATCC 33591) | AMP concentration in synergy cases with conventional antibiotics (bacteria)
1 | C[C@@H](O)[C@H]1C(=O)N2C(C(=O)O)=C(S[C@@H]3CN[C@H](C(=O)N(C)C)C3)[C@H](C)[C@H]12 [Meropenem] | 0.31^* | 0.25^* | 0.62 | 1.0 | 0.04 µM | 0.04 µM | > 50 µM | 6.25 µM | 25 µM | 0.5^* | 0.38^* | 1.0 | 1.0 | 1.0 | 1.0 |  | 
2 | GIGDPVTCLKSGAICHPVFCPRRYKQIGTCGLPGTKCCKKP (disulfide 8-37, 15-30, 20-38 (inferred)) [hBD-2] |  |  |  |  |  |  |  |  |  |  |  |  |  |  |  | >100 [200] μM | 0.2 to 1.6 µM
3 | GIINTLQKYYCRVRGGRCAVLSCLPKEEQIGKCSTRGRKCCRRKK (disulfide 11-40, 18-33, 23-41 (inferred)) [hBD-3] |  |  |  |  |  |  |  |  |  |  |  |  |  |  |  |  | 0.08 to 3.75 µM
